Measured values as given in patent US11707431B2, “Dental strips for the delivery of specifically targeted antimicrobial peptides” (C3 Jian, LLC, priority 2017, dated 2023).
No end group written: not given here.

Key:
S. mutans = settings: Streptococcus mutans
MRSA = assay: MIC against MRSA; assay type: cell-based
[1] = cited from earlier work

Compound | % viability remaining (S. mutans) | MIC (MRSA) | further results
TFFRLFNRSQTQALGK [F10 to Q10_C16G2] | 73% | – | –
RESKLIAMADMIRRRI [PF-545] | – | MRSA, 50 μM | –
TFFRLFNRSLTQALGK [F10-L10_C16G2] | 30% | – | –
NYAVVSHT [PF-209] | – | MRSA, 50 μM | –
TFFRLFNRSFTQALAK [G15-A15_C16G2] | 47% | – | –
TQFRLFNRSFTQALGK [F2 to Q2_C16G2] | 47% | – | –
OC[C@@H](O)[C@H](O)[C@@H](O)CO [Xylitol] | – | – | reduce cavities ([1]; in vivo): up to 80%; long-term reduction in caries ([1]; long-term): 88-93%
TLFRLFNRSFTQALGK [F2-L2_C16G2] | 63% | – | –
TFFRLFNRSFTQALDK [G15-D15_C16G2] | 47% | – | –
VLPFPAIPLSRRRACVAAPRPRSRQRAS [PF-168] | – | MRSA, 50 μM | –
TFFRLLNRSFTQALGK [F6-L6_C16G2] | 43% | – | –
TWFRLFNRSFTQALGK [F2-W2_C16G2] | 45% | – | –
KFQGEFTNIGQSYIVSASHMSTSLNTGK [PF-583] | – | MRSA, 50 μM | –
TQFRLQNRSQTQALGK [F7/11/15 sub Q_C16G2] | 93% | – | –
TLFRLLNRSLTQALGK [F2F6F10-L2L6L10_C16G2] | 26% | – | –
MGIIAGIIKFIKGLIEKFTGK [PF-006] | – | MRSA, 50 μM | –
FESKILNASKELDKEKKVNTALSFNSHQDFAKAYQNGKI [PF-606] | – | MRSA, 50 μM | –
FIRKFLQKLHL [K-16] | – | MRSA, 25 μM | –
TFFRLQNRSFTQALGK [F6 to Q6_C16G2] | 79% | – | –
GSVIKKRRKRMAKKKHRKLLKKTRIQRRRAGK [PF-527] | – | MRSA, 50 μM | –
TFFRLFNRSFTQALFK [G15-F15_C16G2] | 29% | – | –
TAFRLANRSATQALGK [F2/6/10-A2/6/10_C16G2] | 78% | – | –
MRFGSLALVAYDSAIKHSWPRPSSVRRLRM [PF-672] | – | MRSA, 1.56 μM | –
